Experimental data published in US20090264384A1, “INDOLE, BENZIMIDAZOLE, AND BENZOLACTAM BORONIC ACID COMPOUNDS, ANALOGS THEREOF AND METHODS OF USE THEREOF” (Nuada, Inc., priority 2004, published 2009).

Tests used:
5-HT transporter(h) = target: T1, 5-HT transporter(h) (Homo sapiens, UniProt P31645); assay: 5-HT transporter(h) binding assay; details: read-out: % Inhibition of Control Specific Binding
T1 construct: expressed in transfected cells; host or cells: HEK-293 cells

NMDA = NMDA binding assay; design: species or system rat; details: 1.0E−05 M
CCKB(h) (CCK2) = target: T2, CCKB(h) (CCK2) (Homo sapiens, UniProt P32239); assay: CCKB(h) (CCK2) binding assay; details: read-out: % Inhibition of Control Specific Binding
T2 construct: expressed in transfected cells; host or cells: HEK-293 cells

GABA transporter = GABA transporter (Rattus norvegicus, UniProt P23978); assay: GABA transporter binding assay; details: 1.0E−05 M; read-out: % Inhibition of Control Specific Binding
B1(h) = target: T3, B1(h) (Homo sapiens, UniProt P46663); assay: B1(h) binding assay; details: 1.0E−05 M; read-out: % Inhibition of Control Specific Binding
T3 construct: expressed in transfected cells; host or cells: CHO cells

β1(h) = target: T4, β1(h) (Homo sapiens, UniProt P08588); assay: β1(h) binding assay; details: read-out: % Inhibition of Control Specific Binding
T4 construct: expressed in transfected cells; host or cells: HEK-293 cells

ETB(h) = target: T5, ETB(h) (Homo sapiens, UniProt P24530); assay: ETB(h) binding assay; details: read-out: % Inhibition of Control Specific Binding
T5 construct: expressed in transfected cells; host or cells: CHO cells

[1] = target: N (neuronal) (α-BGTX-insensitive) (Rattus norvegicus, UniProt P09483+P12390); assay: N (neuronal) (α-BGTX-insensitive) binding assay; details: 1.0E−05 M; read-out: % Inhibition of Control Specific Binding
SK^+Ca channel = SK^+Ca channel binding assay; design: species or system rat; details: 1.0E−05 M
DA transporter(h) = target: T6, DA transporter(h) (Homo sapiens, UniProt Q01959); assay: DA transporter(h) binding assay; details: 1.0E−05 M; read-out: % Inhibition of Control Specific Binding
T6 construct: expressed in transfected cells; host or cells: CHO cells

σ (non-selective) = σ (non-selective) binding assay; design: species or system rat; details: 1.0E−05 M
α2 (non-selective) = α2 (non-selective) binding assay; design: species or system rat; details: 1.0E−05 M
NK1(h) = target: T7, NK1(h) (Homo sapiens, UniProt P25103); assay: NK1(h) binding assay; details: read-out: % Inhibition of Control Specific Binding
T7 construct: NK1(h); U-373MG cells; [Sar^9,Met(O2)^11]-SP; Heuillet et al. (1993); endogenous in cells; host or cells: U-373MG cells

I2 (central) = I2 (central) binding assay; design: species or system rat; details: 1.0E−05 M
A3(h) = target: T8, A3(h) (Homo sapiens, UniProt P0DMS8); assay: A3(h) binding assay; details: read-out: % Inhibition of Control Specific Binding
T8 construct: expressed in transfected cells; host or cells: HEK-293 cells

β2(h) = target: T9, β2(h) (Homo sapiens, UniProt P07550); assay: β2(h) binding assay; details: read-out: % Inhibition of Control Specific Binding
T9 construct: expressed in transfected cells; host or cells: Sf9 cells

[2] = system: colitis provoked by trinitrobenzene sulphonic acid (TNBS); assay: Rat model of colitis provoked by TNBS, 3 days, treatment from Day −1 (CCI-7155, CCI-7156); format: in vivo; details: vs CMC group
Experimental: The effects of CCI-7155 and CCI-7156, were evaluated in the TNBS model at one and two oral dose levels, administered twice a day by gavage, treatment commencing 1 day prior to challenge. A low intracolonic concentration of TNBS (10 mg) was used, known to produce reproducible yet not unduly severe mucosal injury in the colon, determined 3 days after instillation. Colonic macroscopic injury has been assessed, as has colonic weight as a reflection of colonic oedema and wet/dry weight to determine colonic water content, along with determination of myeloperoxidase (MPO) activity (Bradley et al, 1982) as an index of white cell infiltration for the evaluation of tissue injury. In addition to the test compounds [CCI-7155 and CCI-7156], the actions of sulfasalazine, a well-established and currently used treatment has also been evaluated in this model.
TNBS Challenge—Male Wistar rats (230-280 g) were randomised into groups of 8-10 before commencement of the study. Food was withdrawn 18 h (overnight) before TNBS administration, but the rats were allowed free access to drinking water. On the morning of the day of challenge, Day 0, the rats were transiently anaesthetised with ether and TNBS (10 mg in 0.25 ml of 50% ethanol) was instilled approximately 6-8 cm into the colon using a soft plastic catheter inserted in the rat rectum. The rats were allowed to recover with free access to food and drinking water. At the end of the experiment, 72 h after TNBS administration (i.e. on the morning of Day 3, between 9.00 and 11.00), the distal colon was dissected, and the distal 8 cm photographed and stored appropriately for subsequent analyses.
The following primary parameters were measured in the main study: (a) macroscopic scoring of distal 8 cm of colon; (b) myeloperoxidase levels in segments of distal 8 cm of colon. In addition, the weight of the colonic segment was assessed as an indirect and non-specific marker of oedema, and this was supported by measurement of the wet/dry ratio as an index of water content. The body weight of the animals was also determined and expressed as % change from the day of challenge.
Treatments. All challenged groups were dosed orally twice daily from Day −1. The groups for study were:
The compounds were thus administered orally, twice daily and given on Day −b 1 before TNBS administration, on Day 0, the day of TNBS administration and on Day 1 and 2. Tissues were removed 72 h after TNBS administration (on Day3). Dosing was performed once in the morning (Between 9:00 and 11:00) and once in the late afternoon (between 18:00 and 20:00).
Preparation of Compound. CCI-7155 and CCI-7156 were suspended in 0.5% w/v carboxy methyl cellulose in sterile water, to produce a smooth suspension as instructed, and administered in a volume of 2 ml/kg (˜0.5 ml per rat per dose).
Preparation of Sulfasalazine. the Doses of Sulfasalazine Used in the Present study were derived from previously published work with this agent in the TNBS model (Boughton-Smith et al, 1988; Sykes et al, 1999; Galvez et al, 2000; Bobin-Dubigeon et al, 2001). Sulfasalazine was suspended in carboxy methyl cellulose (0.5% w/v in sterile water; Sigma Chemical Co, compound reference M-0262) and administered p.o. in a volume of 0.5 ml. In previous studies in these laboratories, this concentration of carboxy methyl cellulose (CMC) had no significant effect on the extent of colitis as determined by macroscopic injury and changes in inflammatory markers following TNBS challenge.
Macrocopic Injury. The distal 8 cm portion of the colon (measured from the rectum) was removed, opened longitudinally and gently rinsed with ice-cold phosphate buffer (PBS; pH 7.4), blotted, weighed (Scaltec, Germany) and photographed (Samsung, Digimax 340, digital camera). The tissue was then cut into longitudinal strips, each strip being thus 8 cm long and included the whole of the zone of injury. […]

[3] = 50 mg/kg/day p.o. in divided doses, 72 h after TNBS

T8 sequence (P0DMS8 whole entry): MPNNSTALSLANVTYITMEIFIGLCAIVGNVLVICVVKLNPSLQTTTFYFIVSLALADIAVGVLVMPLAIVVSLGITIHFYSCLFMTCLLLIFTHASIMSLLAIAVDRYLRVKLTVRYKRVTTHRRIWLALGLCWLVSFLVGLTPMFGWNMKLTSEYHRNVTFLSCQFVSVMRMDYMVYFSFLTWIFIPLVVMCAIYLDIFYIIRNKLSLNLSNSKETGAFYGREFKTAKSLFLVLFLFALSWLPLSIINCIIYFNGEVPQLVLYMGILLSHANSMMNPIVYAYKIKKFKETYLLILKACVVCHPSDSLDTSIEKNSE
Chain of N (neuronal) (α-BGTX-insensitive) (P09483 31-630): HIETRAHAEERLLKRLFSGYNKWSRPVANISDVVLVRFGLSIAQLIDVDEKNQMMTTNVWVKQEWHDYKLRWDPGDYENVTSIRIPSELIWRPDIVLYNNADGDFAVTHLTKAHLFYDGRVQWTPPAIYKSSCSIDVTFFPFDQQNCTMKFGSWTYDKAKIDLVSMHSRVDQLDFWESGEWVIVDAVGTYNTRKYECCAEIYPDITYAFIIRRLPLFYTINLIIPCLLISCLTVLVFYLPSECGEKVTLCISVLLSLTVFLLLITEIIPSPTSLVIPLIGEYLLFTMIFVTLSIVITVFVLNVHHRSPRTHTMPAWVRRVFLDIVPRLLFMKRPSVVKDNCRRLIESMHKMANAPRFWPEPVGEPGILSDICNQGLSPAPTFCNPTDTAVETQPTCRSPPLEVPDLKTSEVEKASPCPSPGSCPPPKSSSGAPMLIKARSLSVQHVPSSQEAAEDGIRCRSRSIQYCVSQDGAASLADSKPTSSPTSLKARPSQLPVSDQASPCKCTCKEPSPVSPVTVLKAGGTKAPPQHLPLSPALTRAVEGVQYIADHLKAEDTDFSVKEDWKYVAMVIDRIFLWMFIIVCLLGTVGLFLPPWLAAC
Chain of N (neuronal) (α-BGTX-insensitive) (P12390 25-500): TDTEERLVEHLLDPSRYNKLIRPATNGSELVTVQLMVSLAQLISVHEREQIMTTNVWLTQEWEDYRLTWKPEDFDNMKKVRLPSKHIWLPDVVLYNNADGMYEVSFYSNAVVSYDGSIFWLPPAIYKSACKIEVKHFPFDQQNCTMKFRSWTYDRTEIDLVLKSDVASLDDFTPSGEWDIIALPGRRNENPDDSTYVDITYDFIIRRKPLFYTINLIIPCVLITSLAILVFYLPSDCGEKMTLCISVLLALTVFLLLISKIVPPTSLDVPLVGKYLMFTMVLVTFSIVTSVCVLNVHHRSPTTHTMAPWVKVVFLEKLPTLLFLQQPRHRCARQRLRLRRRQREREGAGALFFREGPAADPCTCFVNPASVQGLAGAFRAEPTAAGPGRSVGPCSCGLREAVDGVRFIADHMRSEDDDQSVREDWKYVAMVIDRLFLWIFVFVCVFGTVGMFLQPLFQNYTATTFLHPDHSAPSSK
T7 sequence (P25103 whole entry): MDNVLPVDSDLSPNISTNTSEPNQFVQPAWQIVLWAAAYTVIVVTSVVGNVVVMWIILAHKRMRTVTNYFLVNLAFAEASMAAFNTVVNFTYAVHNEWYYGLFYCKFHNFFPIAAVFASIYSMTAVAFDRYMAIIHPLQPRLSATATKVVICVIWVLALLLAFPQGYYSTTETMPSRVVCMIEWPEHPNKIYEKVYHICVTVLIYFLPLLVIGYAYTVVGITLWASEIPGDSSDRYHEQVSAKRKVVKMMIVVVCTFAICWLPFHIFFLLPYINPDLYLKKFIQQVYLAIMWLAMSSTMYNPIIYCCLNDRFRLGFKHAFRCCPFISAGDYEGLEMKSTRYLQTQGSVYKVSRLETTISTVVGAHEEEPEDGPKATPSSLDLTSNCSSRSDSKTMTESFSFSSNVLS
T5 sequence (P24530 27-442): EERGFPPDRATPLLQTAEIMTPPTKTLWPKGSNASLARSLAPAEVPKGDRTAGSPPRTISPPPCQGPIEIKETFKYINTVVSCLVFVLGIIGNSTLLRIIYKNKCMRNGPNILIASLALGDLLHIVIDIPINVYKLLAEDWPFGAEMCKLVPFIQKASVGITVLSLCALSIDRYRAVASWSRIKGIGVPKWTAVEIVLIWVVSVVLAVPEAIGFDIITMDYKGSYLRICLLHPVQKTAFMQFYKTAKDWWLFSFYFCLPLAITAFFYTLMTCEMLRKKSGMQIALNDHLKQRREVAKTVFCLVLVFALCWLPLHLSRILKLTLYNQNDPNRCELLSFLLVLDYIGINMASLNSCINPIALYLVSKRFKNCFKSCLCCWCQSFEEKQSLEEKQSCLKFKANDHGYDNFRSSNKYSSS
T9 sequence (P07550 whole entry): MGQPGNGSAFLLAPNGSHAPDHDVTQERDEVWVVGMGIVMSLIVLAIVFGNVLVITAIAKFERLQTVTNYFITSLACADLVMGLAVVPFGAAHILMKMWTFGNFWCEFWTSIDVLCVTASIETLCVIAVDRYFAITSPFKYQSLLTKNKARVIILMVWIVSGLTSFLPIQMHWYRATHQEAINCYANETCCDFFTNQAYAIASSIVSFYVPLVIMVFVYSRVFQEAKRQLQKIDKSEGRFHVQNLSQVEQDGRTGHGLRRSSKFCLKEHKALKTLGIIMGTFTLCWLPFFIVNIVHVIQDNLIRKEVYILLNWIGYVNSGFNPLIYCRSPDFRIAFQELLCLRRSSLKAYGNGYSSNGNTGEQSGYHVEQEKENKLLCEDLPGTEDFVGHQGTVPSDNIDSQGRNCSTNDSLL
T1 sequence (P31645 whole entry): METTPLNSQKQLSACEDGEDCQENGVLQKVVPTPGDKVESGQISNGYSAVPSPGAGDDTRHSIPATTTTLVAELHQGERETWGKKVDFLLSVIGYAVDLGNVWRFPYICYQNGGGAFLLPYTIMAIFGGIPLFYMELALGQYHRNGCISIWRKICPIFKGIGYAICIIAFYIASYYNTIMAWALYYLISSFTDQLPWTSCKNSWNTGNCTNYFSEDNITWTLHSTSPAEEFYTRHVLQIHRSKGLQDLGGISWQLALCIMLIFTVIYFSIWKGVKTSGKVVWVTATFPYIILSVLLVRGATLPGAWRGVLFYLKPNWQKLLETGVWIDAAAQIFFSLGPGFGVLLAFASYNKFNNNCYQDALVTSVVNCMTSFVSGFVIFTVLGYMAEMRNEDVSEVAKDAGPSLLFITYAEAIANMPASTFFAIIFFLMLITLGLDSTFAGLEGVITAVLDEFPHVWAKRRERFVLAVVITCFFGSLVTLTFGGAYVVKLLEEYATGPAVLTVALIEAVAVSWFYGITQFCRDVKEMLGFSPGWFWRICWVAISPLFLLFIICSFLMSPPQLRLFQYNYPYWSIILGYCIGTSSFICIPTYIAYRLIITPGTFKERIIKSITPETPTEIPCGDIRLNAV
T2 sequence (P32239 whole entry): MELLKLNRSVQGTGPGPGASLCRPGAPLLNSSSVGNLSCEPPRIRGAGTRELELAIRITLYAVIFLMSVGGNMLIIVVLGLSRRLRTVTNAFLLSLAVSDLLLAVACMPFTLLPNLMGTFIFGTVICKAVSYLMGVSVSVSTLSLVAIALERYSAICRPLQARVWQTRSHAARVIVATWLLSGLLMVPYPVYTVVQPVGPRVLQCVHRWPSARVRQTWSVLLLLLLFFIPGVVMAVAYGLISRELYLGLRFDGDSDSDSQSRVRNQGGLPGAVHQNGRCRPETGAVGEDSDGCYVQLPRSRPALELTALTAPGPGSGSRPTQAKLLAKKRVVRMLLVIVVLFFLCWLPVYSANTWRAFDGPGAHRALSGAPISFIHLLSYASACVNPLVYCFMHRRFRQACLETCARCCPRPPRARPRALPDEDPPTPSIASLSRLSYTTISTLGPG
T3 sequence (P46663 whole entry): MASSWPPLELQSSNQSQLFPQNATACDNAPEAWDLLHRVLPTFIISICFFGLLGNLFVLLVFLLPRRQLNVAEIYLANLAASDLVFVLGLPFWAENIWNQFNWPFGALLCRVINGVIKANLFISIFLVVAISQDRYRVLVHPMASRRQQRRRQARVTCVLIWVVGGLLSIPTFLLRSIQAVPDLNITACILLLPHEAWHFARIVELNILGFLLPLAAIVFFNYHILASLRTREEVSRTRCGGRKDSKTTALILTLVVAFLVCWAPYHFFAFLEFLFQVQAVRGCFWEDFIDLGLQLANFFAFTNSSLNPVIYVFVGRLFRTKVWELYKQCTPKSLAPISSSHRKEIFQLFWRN

For `N#Cc1ccc2c(ccn2CCCCCB(O)O)c1` [Example 20, 5-(5-cyano-1H-indol-1-yl)pentylboronic acid], the inhibition at 10 µM (5-HT transporter(h)) was 90%, the “% Inhibition of Control Specific Binding” value (NMDA) was 19% and the inhibition at 10 µM (CCKB(h) (CCK2)) was 5%. The inhibition at 10 µM (GABA transporter) was -13%, the inhibition at 10 µM (B1(h)) was -5% and the inhibition at 10 µM (β1(h)) was 7%. For the same compound, the inhibition at 10 µM (ETB(h)) was 10%, the inhibition at 10 µM [1] was 12% and the “% Inhibition of Control Specific Binding” value (SK^+Ca channel) was −15%. For the same compound, the inhibition at 10 µM (DA transporter(h)) was 47%, the “% Inhibition of Control Specific Binding” value (σ (non-selective)) was 5% and the “% Inhibition of Control Specific Binding” value (α2 (non-selective)) was 7%. The inhibition at 10 µM (NK1(h)) was 12%, the “% Inhibition of Control Specific Binding” value (I2 (central)) was 1% and the inhibition at 10 µM (A3(h)) was -12%. The inhibition at 10 µM (β2(h)) was 5%.

For `O=C(O)c1cc(/N=N/c2ccc(S(=O)(=O)Nc3ccccn3)cc2)ccc1O` [sulfasalazine, reference compound], the “attenuation of TNBS-induced fall in body weight (% change in body weight at Day 0)” value ([2]; 50 mg/kg/day p.o. in divided doses b.i.d.) was “did not reach statistical significance”, the “reduction in area of macroscopic colonic injury” value [2, 3] was “significantly (P<0.001) reduced the extent of macroscopic injury” and the “reduction in colon weight” value [2, 3] was “significant reduction in colon weight was also not observed”. The “reduction in colonic MPO levels” value [2, 3] was “significantly reduced the elevated colonic levels of MPO” and the “reduction in colonic water content (wet/dry weight)” value [2, 3] was “significant reduction in colon weight was also not observed”.
